System: skin of adult mice (level of peroxides)
Assay: Peroxide level (TBA test) in skin of adult mice after cream application
Assay type: in vivo
Settings: 0.1% dissolved in Oil of Olay, similar experiments
Method: The plants that may be utilized as a source of the water soluble extract include the plant tissues of selected species such as the stems and green leaves selected from the group consisting of Spinacia, Trifolium, Medicago, Zea, Penicillaria, Algae, and Nicotiana. Other plants may be utilized if an aqueous extract of the green leaves provide an antioxidant effect when it is applied to skin. The antioxidant effect is determined by the thiobarbituric acid (TBA) test. This test is described in Food Res. V. 23, P 620 (1958). Generally the level of peroxide in the skin may be determined by assay of a sample of untreated skin which is peeled from a test animal. A preweighed sample of from 10 to 50 mg is homogenized in 0.2 M phosphate buffer pH 6.5 and centrifuged. The supernatant is collected and the peroxide level is determined using the TBA test. A sample of skin from the same animal which has been treated according to the invention is also peeled and the peroxide level is determined. A reduction in the peroxide level of about 35% when an antioxidant obtained from a plant is applied as 0.5% w/w dispersion in a petrolatum base is the criteria for determining if a given plant extract is useful according to the present invention.
Samples of creams and appropriate controls were applied to mice or rat skin for a fixed period. The application was done once a day. Experiments were terminated by killing the animals, peeling the skin and freezing it in liquid nitrogen. Samples of the frozen skin were homogenized in 0.2M phosphate buffer, pH 6.5. After centrifugation the supernatant was collected and analyzed for the peroxide value using the TBA (Thiobarbituric acid) test as described by Sinnhuber, et al. Food Res. V. 23, p 620 (1958).
In these experiments adult mice (2months old) were treated as described in Example 2. The grown mice were shaved before applying the creams to the skin.
In this experiment the antioxidant was dissolved in Oil of Olay. Mice were sacrificed after 21 days.

Structure (SMILES)	effect on the level of peroxides in the skin
COc1ccc(O)c(C(C)(C)C)c1 [BHA, butylated hydroxy anisole]	no reduction of the peroxides was observed
Cc1cc(C(C)(C)C)c(O)c(C(C)(C)C)c1 [BHT, butylated hydroxy toluene]	no reduction of the peroxides was observed
Cc1c(C)c2c(c(C)c1O)CCC(C)(CCCC(C)CCCC(C)CCCC(C)C)O2 (stereo not drawn) [alpha tocopherol]	no reduction of the peroxides was observed
